Measured values as given in article PMC7686313, “Phase 1 study of mTORC1/2 inhibitor sapanisertib (TAK-228) in advanced solid tumours, with an expansion phase in renal, endometrial or bladder cancer” (British Journal of Cancer, 2020).

Experiment: Safety (adverse events, NCI CTCAE v4.0), dose-escalation phase
[1] = dose-escalation QD × 5dQW 7–13 mg
[2] = dose-escalation Total (n = 116)

Method: Patients who received ≥1 dose of sapanisertib were included in the safety population. […] Adverse events (AEs) were assessed using the National Cancer Institute Common Terminology Criteria for Adverse Events, v4.0. Patients were provided with a home blood-glucose meter to monitor their fasting predose blood-glucose measurements to assess hyperglycaemia as an on-target AE and PD marker.

For CC(C)n1nc(-c2ccc3oc(N)nc3c2)c2c(N)ncnc21 [Sapanisertib], the “Fatigue, treatment-related grade ≥3 AE” value [1] was 2 (9) n (%), the “Headache, treatment-related AE” value [1] was 1 (5) n (%) and the “Hypercholesterolemia, treatment-related AE” value [1] was 1 (5) n (%). For the same compound, the “Hyperglycaemia, treatment-related AE” value [1] was 11 (50) n (%), the “Hyperglycaemia, treatment-related grade ≥3 AE” value [1] was 1 (5) n (%) and the “Hypophosphatemia, treatment-related AE” value [1] was 2 (9) n (%). The “Hypophosphatemia, treatment-related grade ≥3 AE” value [1] was 0 (0) n (%), the “Lymphopenia, treatment-related grade ≥3 AE” value [1] was 0 (0) n (%) and the “Nausea, treatment-related AE” value [1] was 13 (59) n (%). The “Nausea, treatment-related grade ≥3 AE” value [1] was 1 (5) n (%), the On-study deaths [1] was 0 n (%) and the “Pruritus generalised, treatment-related AE” value [1] was 1 (5) n (%). The “Pruritus generalised, treatment-related grade ≥3 AE” value [1] was 0 (0) n (%), the “Pruritus, treatment-related AE” value [1] was 3 (14) n (%) and the “Rash maculo-papular, treatment-related AE” value [1] was 2 (9) n (%). The “Rash maculo-papular, treatment-related grade ≥3 AE” value [1] was 1 (5) n (%), the “Rash, treatment-related AE” value [1] was 3 (14) n (%) and the “Rash, treatment-related grade ≥3 AE” value [1] was 0 (0) n (%). The “Stomatitis (includes oropharyngeal pain and mucosal inflammation), treatment-related AE” value (“Stomatitis … treatment-related AE” for short) [1] was 13 (59) n (%), the “Stomatitis, treatment-related grade ≥3 AE” value [1] was 3 (14) n (%) and the “Thrombocytopenia, treatment-related grade ≥3 AE” value [1] was 0 (0) n (%). For the same compound, the “Vomiting, treatment-related AE” value [1] was 10 (45) n (%), the “Weight decreased, treatment-related AE” value [1] was 2 (9) n (%) and the “Acute kidney injury, treatment-related AE” value (dose-escalation QW 7–40 mg) was 0 (0) n (%). For the same compound, the “Anaemia, treatment-related AE” value (dose-escalation QW 7–40 mg) was 1 (3) n (%), the “Any AE” value (dose-escalation QW 7–40 mg) was 30 (100) n (%) and the “Any AE resulting in dose modification/interruption” value (dose-escalation QW 7–40 mg) was 13 (43) n (%). The “Any AE resulting in treatment discontinuation” value (dose-escalation QW 7–40 mg) was 4 (13) n (%), the “Any SAE” value (dose-escalation QW 7–40 mg) was 10 (33) n (%) and the “Any grade ≥3 AE” value (dose-escalation QW 7–40 mg) was 18 (60) n (%). The “Any treatment-related AE” value (dose-escalation QW 7–40 mg) was 28 (93) n (%), the “Any treatment-related SAE” value (dose-escalation QW 7–40 mg) was 0 n (%) and the “Any treatment-related grade ≥3 AE” value (dose-escalation QW 7–40 mg) was 8 (27) n (%). For the same compound, the “Asthenia, treatment-related AE” value (dose-escalation QW 7–40 mg) was 12 (40) n (%), the “Asthenia, treatment-related grade ≥3 AE” value (dose-escalation QW 7–40 mg) was 1 (3) n (%) and the “Blood creatinine increased, treatment-related AE” value (dose-escalation QW 7–40 mg) was 3 (10) n (%). For the same compound, the “Decreased appetite, treatment-related AE” value (dose-escalation QW 7–40 mg) was 8 (27) n (%), the “Dehydration, treatment-related AE” value (dose-escalation QW 7–40 mg) was 1 (3) n (%) and the “Dehydration, treatment-related grade ≥3 AE” value (dose-escalation QW 7–40 mg) was 0 (0) n (%). For the same compound, the “Diarrhoea, treatment-related AE” value (dose-escalation QW 7–40 mg) was 9 (30) n (%), the “Diarrhoea, treatment-related grade ≥3 AE” value (dose-escalation QW 7–40 mg) was 1 (3) n (%) and the “Dry mouth, treatment-related AE” value (dose-escalation QW 7–40 mg) was 3 (10) n (%). The “Dysgeusia, treatment-related AE” value (dose-escalation QW 7–40 mg) was 3 (10) n (%), the “Dyspepsia, treatment-related AE” value (dose-escalation QW 7–40 mg) was 1 (3) n (%) and the “Fatigue, treatment-related AE” value (dose-escalation QW 7–40 mg) was 8 (27) n (%). The “Fatigue, treatment-related grade ≥3 AE” value (dose-escalation QW 7–40 mg) was 2 (7) n (%), the “Headache, treatment-related AE” value (dose-escalation QW 7–40 mg) was 2 (7) n (%) and the “Hypercholesterolemia, treatment-related AE” value (dose-escalation QW 7–40 mg) was 1 (3) n (%). For the same compound, the “Hyperglycaemia, treatment-related AE” value (dose-escalation QW 7–40 mg) was 17 (57) n (%), the “Hyperglycaemia, treatment-related grade ≥3 AE” value (dose-escalation QW 7–40 mg) was 2 (7) n (%) and the “Hypophosphatemia, treatment-related AE” value (dose-escalation QW 7–40 mg) was 0 (0) n (%). The “Hypophosphatemia, treatment-related grade ≥3 AE” value (dose-escalation QW 7–40 mg) was 0 (0) n (%), the “Lymphopenia, treatment-related grade ≥3 AE” value (dose-escalation QW 7–40 mg) was 1 (3) n (%) and the “Nausea, treatment-related AE” value (dose-escalation QW 7–40 mg) was 22 (73) n (%). For the same compound, the “Nausea, treatment-related grade ≥3 AE” value (dose-escalation QW 7–40 mg) was 0 (0) n (%), the On-study deaths (dose-escalation QW 7–40 mg) was 1 (3) n (%) and the “Pruritus generalised, treatment-related AE” value (dose-escalation QW 7–40 mg) was 0 (0) n (%). The “Pruritus generalised, treatment-related grade ≥3 AE” value (dose-escalation QW 7–40 mg) was 0 (0) n (%), the “Pruritus, treatment-related AE” value (dose-escalation QW 7–40 mg) was 2 (7) n (%) and the “Rash maculo-papular, treatment-related AE” value (dose-escalation QW 7–40 mg) was 0 (0) n (%). The “Rash maculo-papular, treatment-related grade ≥3 AE” value (dose-escalation QW 7–40 mg) was 0 (0) n (%), the “Rash, treatment-related AE” value (dose-escalation QW 7–40 mg) was 2 (7) n (%) and the “Rash, treatment-related grade ≥3 AE” value (dose-escalation QW 7–40 mg) was 0 (0) n (%). The “Stomatitis … treatment-related AE” value (dose-escalation QW 7–40 mg) was 9 (30) n (%), the “Stomatitis, treatment-related grade ≥3 AE” value (dose-escalation QW 7–40 mg) was 0 (0) n (%) and the “Thrombocytopenia, treatment-related grade ≥3 AE” value (dose-escalation QW 7–40 mg) was 0 (0) n (%). For the same compound, the “Vomiting, treatment-related AE” value (dose-escalation QW 7–40 mg) was 17 (57) n (%), the “Weight decreased, treatment-related AE” value (dose-escalation QW 7–40 mg) was 2 (7) n (%) and the “Acute kidney injury, treatment-related AE” value [2] was 1 (1) n (%). The “Anaemia, treatment-related AE” value [2] was 5 (4) n (%), the “Any AE” value [2] was 116 (100) n (%) and the “Any AE resulting in dose modification/interruption” value [2] was 68 (59) n (%). The “Any AE resulting in treatment discontinuation” value [2] was 28 (24) n (%), the “Any SAE” value [2] was 50 (43) n (%) and the “Any grade ≥3 AE” value [2] was 76 (66) n (%). For the same compound, the “Any treatment-related AE” value [2] was 112 (97) n (%), the “Any treatment-related SAE” value [2] was 17 (15) n (%) and the “Any treatment-related grade ≥3 AE” value [2] was 49 (42) n (%). The “Asthenia, treatment-related AE” value [2] was 37 (32) n (%), the “Asthenia, treatment-related grade ≥3 AE” value [2] was 9 (8) n (%) and the “Blood creatinine increased, treatment-related AE” value [2] was 12 (10) n (%). The “Decreased appetite, treatment-related AE” value [2] was 43 (37) n (%), the “Dehydration, treatment-related AE” value [2] was 5 (4) n (%) and the “Dehydration, treatment-related grade ≥3 AE” value [2] was 1 (1) n (%). The “Diarrhoea, treatment-related AE” value [2] was 41 (35) n (%), the “Diarrhoea, treatment-related grade ≥3 AE” value [2] was 2 (2) n (%) and the “Dry mouth, treatment-related AE” value [2] was 12 (10) n (%). The “Dysgeusia, treatment-related AE” value [2] was 19 (16) n (%), the “Dyspepsia, treatment-related AE” value [2] was 3 (3) n (%) and the “Fatigue, treatment-related AE” value [2] was 35 (30) n (%). For the same compound, the “Fatigue, treatment-related grade ≥3 AE” value [2] was 4 (3) n (%), the “Headache, treatment-related AE” value [2] was 6 (5) n (%) and the “Hypercholesterolemia, treatment-related AE” value [2] was 11 (9) n (%). For the same compound, the “Hyperglycaemia, treatment-related AE” value [2] was 75 (65) n (%), the “Hyperglycaemia, treatment-related grade ≥3 AE” value [2] was 16 (14) n (%) and the “Hypophosphatemia, treatment-related AE” value [2] was 7 (6) n (%). The “Hypophosphatemia, treatment-related grade ≥3 AE” value [2] was 3 (3) n (%), the “Lymphopenia, treatment-related grade ≥3 AE” value [2] was 5 (4) n (%) and the “Nausea, treatment-related AE” value [2] was 71 (61) n (%). The “Nausea, treatment-related grade ≥3 AE” value [2] was 3 (3) n (%), the On-study deaths [2] was 4 (3) n (%) and the “Pruritus generalised, treatment-related AE” value [2] was 15 (13) n (%). The “Pruritus generalised, treatment-related grade ≥3 AE” value [2] was 3 (3) n (%), the “Pruritus, treatment-related AE” value [2] was 8 (7) n (%) and the “Rash maculo-papular, treatment-related AE” value [2] was 6 (5) n (%). For the same compound, the “Rash maculo-papular, treatment-related grade ≥3 AE” value [2] was 3 (3) n (%), the “Rash, treatment-related AE” value [2] was 20 (17) n (%) and the “Rash, treatment-related grade ≥3 AE” value [2] was 2 (2) n (%). For the same compound, the “Stomatitis … treatment-related AE” value [2] was 56 (48) n (%), the “Stomatitis, treatment-related grade ≥3 AE” value [2] was 8 (7) n (%) and the “Thrombocytopenia, treatment-related grade ≥3 AE” value [2] was 2 (2) n (%). For the same compound, the “Vomiting, treatment-related AE” value [2] was 53 (46) n (%) and the “Weight decreased, treatment-related AE” value [2] was 7 (6) n (%).
